From the supplement of paper PMC10627819

Experiments:
Test in all cases: fitness (endpoint OD595 vs no drug) (fraction); higher = more growth
S. aureus Newman = conditions: one replicate
Method in brief: (§1)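 Bacterial growth was followed in 384-well plates seeded at OD595 0.01, with 30 µl per well, or 55 µl for S. pneumoniae, in TSB, LB Lennox or CY at 37 °C. OD595 was read every 30 min for 14 h, and each reading had the first reading subtracted as background. Fitness is the background-corrected optical density at entry into stationary phase divided by the robust mean of the no-drug control wells. This ratio is capped at 1.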

S. pneumoniae D39V = test system: S. pneumoniae D39V
Method in brief: as §1

B. subtilis 168 = test system: B. subtilis 168
Method in brief: as §1

O=C(O)[C@H]1/C(=C/CO)O[C@@H]2CC(=O)N21 [Clavulanic acid] + CN[C@@H]1[C@H](O)[C@H](NC)[C@H]2O[C@@]3(O)C(=O)C[C@@H](C)O[C@H]3O[C@@H]2[C@H]1O [Spectinomycin]
fitness
Conditions	partner 2 µg/mL	partner 4 µg/mL	partner 8 µg/mL	partner 16 µg/mL
B. subtilis 168, first compound 1.5 µg/mL	0.892	0.929	0.934	–
B. subtilis 168, first compound 3 µg/mL	0.951	0.868	0.867	–
B. subtilis 168, first compound 6 µg/mL	0.832	0.755	0.72	–
S. aureus Newman, first compound 0.03125 µg/mL	–	0.961	0.945	0.92
S. aureus Newman, first compound 0.0625 µg/mL	–	0.922	0.945	0.885
S. aureus Newman, first compound 0.125 µg/mL	–	0.916	0.958	0.905
S. pneumoniae D39V, first compound 0.5 µg/mL	–	0.916	0.852	0.658
S. pneumoniae D39V, first compound 1 µg/mL	–	0.809	0.845	0.621
S. pneumoniae D39V, first compound 2 µg/mL	–	0.79	0.749	0.447

O=C(O)[C@H]1/C(=C/CO)O[C@@H]2CC(=O)N21 [Clavulanic acid] + CCN(CC)CCOC(=O)c1ccc(N)cc1 [Procaine]
fitness
Conditions	partner 85.5 µg/mL	partner 171 µg/mL	partner 342 µg/mL
B. subtilis 168, first compound 1.5 µg/mL	0.876	0.92	0.902
B. subtilis 168, first compound 3 µg/mL	0.839	0.831	0.795
B. subtilis 168, first compound 6 µg/mL	0.746	0.739	0.672
S. aureus Newman, first compound 0.03125 µg/mL	0.948	0.929	0.963
S. aureus Newman, first compound 0.0625 µg/mL	0.982	≥ 1	≥ 1
S. aureus Newman, first compound 0.125 µg/mL	0.872	0.852	0.894
S. pneumoniae D39V, first compound 0.5 µg/mL	0.994	≥ 1	≥ 1
S. pneumoniae D39V, first compound 1 µg/mL	0.957	0.977	0.934
S. pneumoniae D39V, first compound 2 µg/mL	0.832	0.912	0.795

O=C(O)[C@H]1/C(=C/CO)O[C@@H]2CC(=O)N21 [Clavulanic acid] + CC1=C(C(=O)O)N2C(=O)[C@@H](NC(=O)[C@H](N)c3ccccc3)[C@H]2SC1 [Cephalexin]
Conditions	fitness
B. subtilis 168, first compound 1.5 µg/mL, partner 0.125 µg/mL	0.904
B. subtilis 168, first compound 1.5 µg/mL, partner 0.25 µg/mL	0.927
B. subtilis 168, first compound 1.5 µg/mL, partner 0.5 µg/mL	0.889
B. subtilis 168, first compound 3 µg/mL, partner 0.125 µg/mL	0.878
B. subtilis 168, first compound 3 µg/mL, partner 0.25 µg/mL	0.818
B. subtilis 168, first compound 3 µg/mL, partner 0.5 µg/mL	0.793
B. subtilis 168, first compound 6 µg/mL, partner 0.125 µg/mL	0.772
B. subtilis 168, first compound 6 µg/mL, partner 0.25 µg/mL	0.76
B. subtilis 168, first compound 6 µg/mL, partner 0.5 µg/mL	0.723
S. aureus Newman, first compound 0.03125 µg/mL, partner 0.5 µg/mL	≥ 1
S. aureus Newman, first compound 0.03125 µg/mL, partner 1 µg/mL	≥ 1
S. aureus Newman, first compound 0.03125 µg/mL, partner 2 µg/mL	≥ 1
S. aureus Newman, first compound 0.0625 µg/mL, partner 0.5 µg/mL	0.958
S. aureus Newman, first compound 0.0625 µg/mL, partner 1 µg/mL	0.986
S. aureus Newman, first compound 0.0625 µg/mL, partner 2 µg/mL	≥ 1
S. aureus Newman, first compound 0.125 µg/mL, partner 0.5 µg/mL	0.897
S. aureus Newman, first compound 0.125 µg/mL, partner 1 µg/mL	0.913
S. aureus Newman, first compound 0.125 µg/mL, partner 2 µg/mL	0.919
S. pneumoniae D39V, first compound 0.5 µg/mL, partner 2 µg/mL	0.0193
S. pneumoniae D39V, first compound 0.5 µg/mL, partner 4 µg/mL	0.0187
S. pneumoniae D39V, first compound 1 µg/mL, partner 2 µg/mL	0.171
S. pneumoniae D39V, first compound 1 µg/mL, partner 4 µg/mL	0.203
S. pneumoniae D39V, first compound 2 µg/mL, partner 1 µg/mL	0.104
S. pneumoniae D39V, first compound 2 µg/mL, partner 2 µg/mL	0.0309
S. pneumoniae D39V, first compound 2 µg/mL, partner 4 µg/mL	0.045

fitness, one replicate
Conditions	first compound 0.5 µg/mL	first compound 1 µg/mL	first compound 1.5 µg/mL	first compound 2 µg/mL	first compound 3 µg/mL	first compound 6 µg/mL
B. subtilis 168, partner 1 µg/mL	–	–	0.929	–	0.848	0.867
S. pneumoniae D39V, partner 0.125 µg/mL	0.945	0.881	–	0.772	–	–
S. pneumoniae D39V, partner 0.25 µg/mL	0.957	0.903	–	0.789	–	–
S. pneumoniae D39V, partner 0.5 µg/mL	0.941	0.944	–	0.765	–	–

O=C(O)[C@H]1/C(=C/CO)O[C@@H]2CC(=O)N21 [Clavulanic acid] + N[C@@H]1CONC1=O [Cycloserine D]
fitness
Conditions	first compound 0.03125 µg/mL	first compound 0.0625 µg/mL	first compound 0.125 µg/mL	first compound 1.5 µg/mL	first compound 3 µg/mL	first compound 6 µg/mL
B. subtilis 168, partner 0.125 µg/mL	–	–	–	0.903	0.909	0.792
B. subtilis 168, partner 0.25 µg/mL	–	–	–	0.957	0.861	0.801
B. subtilis 168, partner 0.5 µg/mL	–	–	–	0.946	0.915	0.832
S. aureus Newman, partner 0.375 µg/mL	0.902	0.954	0.885	–	–	–
S. aureus Newman, partner 0.75 µg/mL	0.884	0.942	0.888	–	–	–
S. aureus Newman, partner 1.5 µg/mL	0.899	0.858	0.897	–	–	–

O=C(O)[C@H]1/C(=C/CO)O[C@@H]2CC(=O)N21 [Clavulanic acid] + CN(N=O)C(=O)N[C@@H](C=O)[C@@H](O)[C@H](O)[C@H](O)CO [Streptozotocin]
fitness
Conditions	partner 0.15 µg/mL	partner 0.3 µg/mL	partner 0.6 µg/mL	partner 1.2 µg/mL	partner 2.4 µg/mL	partner 4.8 µg/mL
B. subtilis 168, first compound 1.5 µg/mL	0.914	0.898	0.911	–	–	–
B. subtilis 168, first compound 3 µg/mL	0.861	0.848	0.929	–	–	–
B. subtilis 168, first compound 6 µg/mL	0.779	0.772	0.75	–	–	–
S. aureus Newman, first compound 0.03125 µg/mL	0.937	0.91	0.667	–	–	–
S. aureus Newman, first compound 0.0625 µg/mL	0.977	0.911	0.761	–	–	–
S. aureus Newman, first compound 0.125 µg/mL	0.923	0.865	0.655	–	–	–
S. pneumoniae D39V, first compound 0.5 µg/mL	–	–	–	0.937	0.979	0.944
S. pneumoniae D39V, first compound 1 µg/mL	–	–	–	0.882	0.947	0.864
S. pneumoniae D39V, first compound 2 µg/mL	–	–	–	0.784	0.876	0.747

O=C(O)[C@H]1/C(=C/CO)O[C@@H]2CC(=O)N21 [Clavulanic acid] + CCC[C@@H]1C[C@@H](C(=O)N[C@@H]([C@H]2O[C@H](SC)[C@H](O)[C@@H](O)[C@H]2O)[C@H](C)Cl)N(C)C1 [Clindamycin]
Conditions	fitness
B. subtilis 168, first compound 1.5 µg/mL, partner 0.0625 µg/mL	0.609
B. subtilis 168, first compound 1.5 µg/mL, partner 0.125 µg/mL	0.322
B. subtilis 168, first compound 1.5 µg/mL, partner 0.25 µg/mL	0.308
B. subtilis 168, first compound 3 µg/mL, partner 0.0625 µg/mL	0.404
B. subtilis 168, first compound 3 µg/mL, partner 0.125 µg/mL	0.313
B. subtilis 168, first compound 3 µg/mL, partner 0.25 µg/mL	0.26
B. subtilis 168, first compound 6 µg/mL, partner 0.0625 µg/mL	0.398
B. subtilis 168, first compound 6 µg/mL, partner 0.125 µg/mL	0.24
B. subtilis 168, first compound 6 µg/mL, partner 0.25 µg/mL	0.217
S. aureus Newman, first compound 0.03125 µg/mL, partner 0.0312 µg/mL	0.863
S. aureus Newman, first compound 0.03125 µg/mL, partner 0.0625 µg/mL	0.544
S. aureus Newman, first compound 0.03125 µg/mL, partner 0.125 µg/mL	0.38
S. aureus Newman, first compound 0.0625 µg/mL, partner 0.0312 µg/mL	0.889
S. aureus Newman, first compound 0.0625 µg/mL, partner 0.0625 µg/mL	0.518
S. aureus Newman, first compound 0.0625 µg/mL, partner 0.125 µg/mL	0.375
S. aureus Newman, first compound 0.125 µg/mL, partner 0.0312 µg/mL	0.785
S. aureus Newman, first compound 0.125 µg/mL, partner 0.0625 µg/mL	0.402
S. aureus Newman, first compound 0.125 µg/mL, partner 0.125 µg/mL	0.282
S. pneumoniae D39V, first compound 0.5 µg/mL, partner 0.0125 µg/mL	0.779
S. pneumoniae D39V, first compound 0.5 µg/mL, partner 0.015 µg/mL	0.789
S. pneumoniae D39V, first compound 0.5 µg/mL, partner 0.025 µg/mL	0.511
S. pneumoniae D39V, first compound 0.5 µg/mL, partner 0.03 µg/mL	0.516
S. pneumoniae D39V, first compound 0.5 µg/mL, partner 0.05 µg/mL	0.134
S. pneumoniae D39V, first compound 0.5 µg/mL, partner 0.06 µg/mL	0.305
S. pneumoniae D39V, first compound 1 µg/mL, partner 0.0125 µg/mL	0.749
S. pneumoniae D39V, first compound 1 µg/mL, partner 0.015 µg/mL	0.78
S. pneumoniae D39V, first compound 1 µg/mL, partner 0.025 µg/mL	0.485
S. pneumoniae D39V, first compound 1 µg/mL, partner 0.03 µg/mL	0.567
S. pneumoniae D39V, first compound 1 µg/mL, partner 0.05 µg/mL	0.116
S. pneumoniae D39V, first compound 1 µg/mL, partner 0.06 µg/mL	0.417
S. pneumoniae D39V, first compound 2 µg/mL, partner 0.0125 µg/mL	0.683
S. pneumoniae D39V, first compound 2 µg/mL, partner 0.015 µg/mL	0.566
S. pneumoniae D39V, first compound 2 µg/mL, partner 0.025 µg/mL	0.407
S. pneumoniae D39V, first compound 2 µg/mL, partner 0.03 µg/mL	0.399
S. pneumoniae D39V, first compound 2 µg/mL, partner 0.05 µg/mL	0.101
S. pneumoniae D39V, first compound 2 µg/mL, partner 0.06 µg/mL	0.245

fitness, B. subtilis 168, one replicate
Conditions	first compound 1.5 µg/mL	first compound 3 µg/mL	first compound 6 µg/mL
partner 0.0039 µg/mL	0.957	0.974	0.931
partner 0.0078 µg/mL	0.842	0.826	0.791
partner 0.0156 µg/mL	0.836	0.763	0.739
